As usually defined, the IC50 is the point on the concentration scale where inhibition reaches its midpoint.

8 compounds from US9566312B2, “Cyclic peptides and use as medicines” (priority 2012, dated 2017) can be followed below.

One assay addresses cyclophilin A (CypA) (Homo sapiens (Human), UniProt P62937). Put plainly: Inhibitor binding to cyclophilin proteins by SPR, CypA.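 Also: Single-cycle kinetics on a Biacore T200, compound injected at several concentrations for 1 min each at 50 µL/min, then 10 min dissociation, in HEPES pH 7.4 buffer with 3% DMSO.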 Set-up: unit not given here. The conditions noted are these: 1:1 binding model.
A further assay addresses cyclophilin B (CypB) (Homo sapiens (Human), UniProt P23284). Put plainly: Inhibitor binding to cyclophilin proteins by SPR, CypB. Set-up: unit not given here. The conditions noted are these: 1:1 binding model. In short, it runs like this: (§1)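 Running buffer: 10 mM HEPES pH 7.4, 150 mM NaCl, 0.05% P20, 3% DMSO, with compound present. Capture of avi-tagged mono-biotinylated cyclophilin; single-cycle series, 1 min contact, 10 min dissociation. Rates and affinity fitted to a 1:1 interaction model.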
On the technique in general: In SPR one partner is held on a chip, and binding of the other changes the refractive index at the surface.

The subject of assay [1] is genotype 1b subgenomic HCV replicon in Huh7.5 cells. The class given is cell-based, hepatitis C virus. The conditions noted are these: read-out: RPLN-1b IC50. In short, it runs like this:
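Huh7.5 cells carrying genotype 1b subgenomic HCV replicon with renilla luciferase-neomycin reporter, in phenol red-free DMEM without G418. Luciferase measured after 72 h compound exposure relative to DMSO-treated cells; cytotoxicity (CC50) by Cell Titer-Glo.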

For a further assay, the target named is CypF (Homo sapiens (Human), UniProt P30405). Put plainly: Inhibitor binding to cyclophilin proteins by SPR, CypF. Particulars: 1:1 binding model. In short, it runs like this: as §1
Chain of CypF (P30405 30-207): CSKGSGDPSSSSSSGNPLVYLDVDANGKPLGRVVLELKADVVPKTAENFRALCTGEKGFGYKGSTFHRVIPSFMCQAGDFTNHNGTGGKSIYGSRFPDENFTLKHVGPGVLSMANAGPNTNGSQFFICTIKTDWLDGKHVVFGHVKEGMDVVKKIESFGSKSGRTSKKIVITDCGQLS
The test system of assay [2] is peripheral blood mononuclear cells (PBMC). Put plainly: Anti-proliferative or immunosuppressive activity, BrdU incorporation in PHA-stimulated PBMC. The class given is cell-based. The conditions noted are these: PHA 3 μg/ml, 60 hour compound treatment; read-out: EMV PBMC IC50. In short, it runs like this:
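Fresh PBMCs from two donors, 30,000 per well in X-VIVO 15 medium, stimulated with 3 μg/ml PHA to drive T-cell proliferation. Proliferation measured as BrdU incorporation into DNA by BrdU ELISA.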
(Incorporation of labelled thymidine or its analogues reports DNA synthesis.)

The target in assay [3] is organic anion transporting polypeptide 1B1 (OATP1B1) (Homo sapiens (Human), UniProt Q9Y6L6). Put plainly: OATP assay in CHO-OATP1B1 cells.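 Also: inhibition of probe substrate uptake into the cells, ten minutes exposure, accumulated substrate read by fluorescence once cells were lysed.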
Chain of organic anion transporting polypeptide 1B1 (OATP1B1) (Q9Y6L6 whole entry): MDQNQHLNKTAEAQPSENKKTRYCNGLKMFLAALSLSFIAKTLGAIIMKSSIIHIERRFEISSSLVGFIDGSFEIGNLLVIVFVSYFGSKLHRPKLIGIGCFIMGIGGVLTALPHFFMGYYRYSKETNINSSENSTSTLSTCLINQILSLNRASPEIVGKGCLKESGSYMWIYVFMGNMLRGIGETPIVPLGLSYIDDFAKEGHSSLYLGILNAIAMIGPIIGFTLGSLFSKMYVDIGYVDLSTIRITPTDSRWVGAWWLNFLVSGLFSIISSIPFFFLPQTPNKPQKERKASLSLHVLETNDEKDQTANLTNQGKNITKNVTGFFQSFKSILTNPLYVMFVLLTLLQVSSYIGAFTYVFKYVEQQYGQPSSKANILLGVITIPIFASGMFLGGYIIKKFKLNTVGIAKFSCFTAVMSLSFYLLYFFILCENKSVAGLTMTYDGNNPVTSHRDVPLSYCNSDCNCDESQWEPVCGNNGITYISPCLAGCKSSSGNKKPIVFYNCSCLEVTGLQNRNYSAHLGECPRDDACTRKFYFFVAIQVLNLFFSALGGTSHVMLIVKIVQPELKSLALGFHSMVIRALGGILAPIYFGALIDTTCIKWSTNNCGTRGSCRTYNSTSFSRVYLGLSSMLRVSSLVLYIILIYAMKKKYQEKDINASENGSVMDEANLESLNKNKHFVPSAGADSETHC
Where [4] appears, read: genotype 1b replicon, 72 h incubation.

Like-named read-outs stand apart in the source and are kept apart here. Starred links: 1 amine or outer side, 2 acyl side, 3 side chain; linkers in the order of their positions; H or OH if unused. Non-standard residues stand in square brackets, D forms with d. Residues, ends and D or L forms follow the SMILES beside them. X27 = C[C@H](COCC(=O)N1CCN(C2CCOCC2)CC1)[C@@H](C(=O)[*:2])N(C)[*:1]; X26 = C[C@H](CN1CCn2c(nnc2C(F)(F)F)C1)[C@@H](C(=O)[*:2])N(C)[*:1]; X31 = C[C@H](CN1C[C@H](C)OC[C@@H]1C)[C@@H](C(=O)[*:2])N(C)[*:1]; X70 = C[C@H](CCCOC(=O)N1CCN(C)CC1)[C@@H](C(=O)[*:2])N(C)[*:1]; X29 = CC(=O)N1CCN(C[C@@H](C)[C@@H](C(=O)[*:2])N(C)[*:1])CC1; X72 = C[C@H](CCN1CCN(C2CCC2)CC1)[C@@H](C(=O)[*:2])N(C)[*:1]; X34 = C[C@H](COC(=O)N1CCOCC1)[C@@H](C(=O)[*:2])N(C)[*:1]; X76 = CO[C@H](CN1CCOCC1)[C@@H](C(=O)[*:2])N(C)[*:1]; MeBmt = C/C=C/C[C@@H](C)[C@@H](O)[C@H](NC)C(=O)O; NMeL = CN[C@@H](CC(C)C)C(=O)O; NMeV = CN[C@H](C(=O)O)C(C)C; dNMeA = CN[C@H](C)C(=O)O; Abu = CC[C@H](N)C(=O)O

Chain of cyclophilin A (CypA) (P62937 whole entry): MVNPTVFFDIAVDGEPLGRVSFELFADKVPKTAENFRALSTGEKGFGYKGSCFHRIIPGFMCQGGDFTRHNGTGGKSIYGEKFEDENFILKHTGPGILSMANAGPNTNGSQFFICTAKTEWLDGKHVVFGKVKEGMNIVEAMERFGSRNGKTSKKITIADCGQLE
Chain of cyclophilin B (CypB) (P23284 34-216): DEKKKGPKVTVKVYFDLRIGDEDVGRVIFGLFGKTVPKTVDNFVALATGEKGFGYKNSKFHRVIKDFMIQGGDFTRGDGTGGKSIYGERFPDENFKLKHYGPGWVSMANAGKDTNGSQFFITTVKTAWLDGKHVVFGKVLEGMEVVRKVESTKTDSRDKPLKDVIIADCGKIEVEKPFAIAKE

Regarding `C/C=C/C[C@@H](C)[C@@H](O)[C@H]1C(=O)N[C@@H](CC)C(=O)N(C)[C@H](C)C(=O)N(C)[C@@H]([C@@H](CN2CCOCC2)OC)C(=O)N[C@@H](C(C)C)C(=O)N(C)[C@@H](CC(C)C)C(=O)N[C@@H](C)C(=O)N[C@H](C)C(=O)N(C)[C@@H](CC(C)C)C(=O)N(C)[C@@H](CC(C)C)C(=O)N(C)[C@@H](C(C)C)C(=O)N1C` [Compound 2.21.1, 3-[D-Ala]-4-[(2S,3R)-3-methoxy-2-(methylamino)-4-morpholinobutanoyl]-cyclosporin] (cyclo(A[dA][NMeL][NMeL][NMeV][MeBmt][Abu][dNMeA][X76]V[NMeL])), the “CypA Kd” value at cyclophilin A (CypA) is given as 2.8. For the same compound, the “CypB Kd” value on cyclophilin B (CypB) is 1.2. Moreover, the IC50 in assay [1] was 23 nM; in assay [2], 15700 nM; in assay [3] it was 900 nM. Also, the CypF Kd on CypF came out at 1.2 nM.

In the case of `C/C=C/C[C@@H](C)[C@@H](O)[C@H]1C(=O)N[C@@H](CC)C(=O)N(C)[C@H](C)C(=O)N(C)[C@@H]([C@H](C)CCN2CCN(C3CCC3)CC2)C(=O)N[C@@H](C(C)C)C(=O)N(C)[C@@H](CC(C)C)C(=O)N[C@@H](C)C(=O)N[C@H](C)C(=O)N(C)[C@@H](CC(C)C)C(=O)N(C)[C@@H](CC(C)C)C(=O)N(C)[C@@H](C(C)C)C(=O)N1C` [Compound 2.18.10, 3-[D-Ala]-4-[(2S,3R)-5-(4-cyclobutylpiperazin-1-yl)-3-methyl-2-(methylamino)pentanoyl]-cyclosporin] (cyclo(A[dA][NMeL][NMeL][NMeV][MeBmt][Abu][dNMeA][X72]V[NMeL])), at cyclophilin A (CypA), the “CypA Kd” value is recorded as 1.5. Also, the “CypB Kd” value at cyclophilin B (CypB) is on record as 1.1. For the same compound, the IC50 in assay [1] (setting [4]) was 96 nM; in assay [2] it was 1600 nM; in assay [3], 2100 nM. Further, at CypF, the CypF Kd turned out to be 0.7 nM.

In the case of `C/C=C/C[C@@H](C)[C@@H](O)[C@H]1C(=O)N[C@@H](CC)C(=O)N(C)[C@H](C)C(=O)N(C)[C@@H]([C@H](C)CCCOC(=O)N2CCN(C)CC2)C(=O)N[C@@H](C(C)C)C(=O)N(C)[C@@H](CC(C)C)C(=O)N[C@@H](C)C(=O)N[C@H](C)C(=O)N(C)[C@@H](CC(C)C)C(=O)N(C)[C@@H](CC(C)C)C(=O)N(C)[C@@H](C(C)C)C(=O)N1C` [Compound 2.19.7, 3-[D-Ala]-4-[(2S,3R)-3-methyl-2-(methylamino)-6-((4-methylpiperazine-1-carbonyl)oxy)hexanoyl]-cyclosporin] (cyclo(A[dA][NMeL][NMeL][NMeV][MeBmt][Abu][dNMeA][X70]V[NMeL])), the “CypA Kd” value on cyclophilin A (CypA) turned out to be 1.1. On cyclophilin B (CypB), the “CypB Kd” value amounted to 0.7. The values for the IC50 in assay [1] (setting [4]), in assay [2] and in assay [3] were 11 nM, 15900 nM and 2900 nM, respectively. Moreover, at CypF, the CypF Kd stood at 0.7 nM.

In the case of `C/C=C/C[C@@H](C)[C@@H](O)[C@H]1C(=O)N[C@@H](CC)C(=O)N(C)[C@H](C)C(=O)N(C)[C@@H]([C@H](C)CN2C[C@H](C)OC[C@@H]2C)C(=O)N[C@@H](C(C)C)C(=O)N(C)[C@@H](CC(C)C)C(=O)N[C@@H](C)C(=O)N[C@H](C)C(=O)N(C)[C@@H](CC(C)C)C(=O)N(C)[C@@H](CC(C)C)C(=O)N(C)[C@@H](C(C)C)C(=O)N1C` [Compound 2.5.6, 3-[D-Ala]-4-[(2S,3R)-4-((2S,5S)-2,5-dimethylmorpholino)-3-methyl-2-(methylamino)butanoyl]-cyclosporin] (cyclo(A[dA][NMeL][NMeL][NMeV][MeBmt][Abu][dNMeA][X31]V[NMeL])), at cyclophilin A (CypA), the “CypA Kd” value turned out to be 5.0. For the same compound, the “CypB Kd” value on cyclophilin B (CypB) is given as 2.7. For the same compound, the IC50 in assay [1] (setting [4]) was 35 nM; in assay [2], 3400 nM; in assay [3] it was 2600 nM. At CypF, this compound came in with a CypF Kd of 2.5 nM.

In the case of `C/C=C/C[C@@H](C)[C@@H](O)[C@H]1C(=O)N[C@@H](CC)C(=O)N(C)[C@H](C)C(=O)N(C)[C@@H]([C@H](C)COC(=O)N2CCOCC2)C(=O)N[C@@H](C(C)C)C(=O)N(C)[C@@H](CC(C)C)C(=O)N[C@@H](C)C(=O)N[C@H](C)C(=O)N(C)[C@@H](CC(C)C)C(=O)N(C)[C@@H](CC(C)C)C(=O)N(C)[C@@H](C(C)C)C(=O)N1C` [Compound 2.5.7, 3-[D-Ala]-4-[(2S,3S)-3-methyl-2-(methylamino)-4-((morpholine-4-carbonyl)oxy)butanoyl]-cyclosporin] (cyclo([MeBmt][Abu][dNMeA][X34]V[NMeL]A[dA][NMeL][NMeL][NMeV])), the “CypA Kd” value on cyclophilin A (CypA) worked out at 2.1. Also, at cyclophilin B (CypB), the “CypB Kd” value is on record as 1.3. Also, the IC50 in assay [1] turned out to be 48 nM; in assay [2], 19300 nM; in assay [3] it was 2300 nM. This compound showed a CypF Kd on CypF of 1.5 nM.

For the compound `C/C=C/C[C@@H](C)[C@@H](O)[C@H]1C(=O)N[C@@H](CC)C(=O)N(C)[C@H](C)C(=O)N(C)[C@@H]([C@H](C)CN2CCN(C(C)=O)CC2)C(=O)N[C@@H](C(C)C)C(=O)N(C)[C@@H](CC(C)C)C(=O)N[C@@H](C)C(=O)N[C@H](C)C(=O)N(C)[C@@H](CC(C)C)C(=O)N(C)[C@@H](CC(C)C)C(=O)N(C)[C@@H](C(C)C)C(=O)N1C` [Compound 2.5.23, 3-[D-Ala]-4-[(2S,3R)-4-(4-acetylpiperazin-1-yl)-3-methyl-2-(methylamino)butanoyl]-cyclosporin] (cyclo(A[dA][NMeL][NMeL][NMeV][MeBmt][Abu][dNMeA][X29]V[NMeL])), the “CypA Kd” value on cyclophilin A (CypA) is 1.6. For the same compound, at cyclophilin B (CypB), the “CypB Kd” value is 0.7. Also, the IC50 in assay [1] (setting [4]) was found to be 47 nM; in assay [2] it was 22800 nM; in assay [3], 2300 nM. In addition, at CypF, the CypF Kd came out at 0.8 nM.

As to `C/C=C/C[C@@H](C)[C@@H](O)[C@H]1C(=O)N[C@@H](CC)C(=O)N(C)[C@H](C)C(=O)N(C)[C@@H]([C@H](C)CN2CCn3c(nnc3C(F)(F)F)C2)C(=O)N[C@@H](C(C)C)C(=O)N(C)[C@@H](CC(C)C)C(=O)N[C@@H](C)C(=O)N[C@H](C)C(=O)N(C)[C@@H](CC(C)C)C(=O)N(C)[C@@H](CC(C)C)C(=O)N(C)[C@@H](C(C)C)C(=O)N1C` [Compound 2.5.19, 3-[D-Ala]-4-[(2S,3R)-3-methyl-2-(methylamino)-4-(3-(trifluoromethyl)-5,6-dihydro-[1,2,4]triazolo[4,3-a]pyrazin-7(8H)-yl)butanoyl]-cyclosporin] (cyclo(A[dA][NMeL][NMeL][NMeV][MeBmt][Abu][dNMeA][X26]V[NMeL])), at cyclophilin A (CypA), the “CypA Kd” value was 2.8. Also, the “CypB Kd” value on cyclophilin B (CypB) was determined as 1.2. Also, the IC50 in assay [1] (setting [4]) stood at 75 nM; in assay [2], 12600 nM; in assay [3], 1000 nM. Besides, the CypF Kd on CypF came out at 1.6 nM.

Consider `C/C=C/C[C@@H](C)[C@@H](O)[C@H]1C(=O)N[C@@H](CC)C(=O)N(C)[C@H](C)C(=O)N(C)[C@@H]([C@H](C)COCC(=O)N2CCN(C3CCOCC3)CC2)C(=O)N[C@@H](C(C)C)C(=O)N(C)[C@@H](CC(C)C)C(=O)N[C@@H](C)C(=O)N[C@H](C)C(=O)N(C)[C@@H](CC(C)C)C(=O)N(C)[C@@H](CC(C)C)C(=O)N(C)[C@@H](C(C)C)C(=O)N1C` [Compound 2.6.2, 3-[D-Ala]-4-[(2S,3S)-4-(2-(4-cyclohexylpiperazin-1-yl)-2-oxoethoxy)-3-methyl-2-(methylamino)butanoyl]-cyclosporin] (cyclo([MeBmt][Abu][dNMeA][X27]V[NMeL]A[dA][NMeL][NMeL][NMeV])), for which the “CypA Kd” value on cyclophilin A (CypA) is recorded as 1.3. Besides, the “CypB Kd” value at cyclophilin B (CypB) worked out at 0.7. Also, the IC50 in assay [1] came out at 140 nM; in assay [2], 17300 nM; in assay [3], 3500 nM. On CypF, this compound showed a CypF Kd of 0.6 nM.
